pIC50: −log10 of the molar value.
Molecular target: Y78F hTTR mutant (Homo sapiens, UniProt P02766, Y98F)
Assay: turbidimetric test of amyloidogenesis (fibril formation) inhibiting activity in vitro
Format: biochemical
Conditions: for RA (%): % reduction of the rate of aggregation at high inhibitor concentration: RA(%)=(1−A/(A+B))·100, compared with the rate in the absence of inhibitor; for pIC50: inhibitor concentration at which the aggregation was half that in the absence of inhibitor, 0 to 40 μM inhibitor, 37° C., acid-induced (dilution buffer pH 4.2); for Ψ: initial slope of curve v0 versus [I]: sensitivity of the aggregation process to the inhibitor, higher = greater inhibiting effect
Protocol: The compounds to be tested as inhibitors were dissolved in DMSO at a concentration of 1.5 mM. The working solution was prepared by 1 to 4 dilution of the previous solution in a water/DMSO mixture (2:1). […] The incubation buffer was 10 mM sodium phosphate, 100 mM potassium chloride, 1 mM EDTA, […]. The dilution buffer was 400 mM sodium acetate, 100 mM potassium chloride, 1 mM EDTA, pH 4.2. The test protocol for an inhibitor was as follows: 20 μl of the protein solution was dispensed in 7 wells of a 96-well microplate. Different volumes of the inhibitor working solution were added to each of the wells to obtain end concentrations of 0 to 40 μM. Incubation buffer was then added to each well up to an end volume of 100 μl. The microplate was incubated at 37° C. in the microplate reader provided with thermostatting and stirring. Incubation proceeded for 30 min at 37° C. with stirring for 15 seconds every minute. 100 μl of dilution buffer was then added to every well, and the mixture was incubated at 37° C. with stirring for 15 seconds every minute in the microplate reader and absorbance was monitored at 330 nm for 1 hour 30 minutes at intervals of 1 minute. The data of absorbance versus time for every well were collected and analysed with the Microsoft Excel program. All tests were done in duplicate.
1.—Initial fibril formation rate. From the absorbance readings at 330 nm with the incubation time for every well, the initial fibril formation rate was calculated as the slope of the initial linear portion of the curve. Thus, the aggregation rate was obtained at every inhibitor concentration. 2.—Aggregation rate versus inhibitor concentration.
The adjusted parameters were: A (in units of absorbance per hour), residual aggregation rate at high inhibitor concentration; B (in units of absorbance per hour), amplitude or maximum reduction of the aggregation rate; and C (in μM^−1) the exponential constant. A+B was the aggregation rate in the absence of inhibitor (maximum aggregation rate). From these parameters, other parameters were extracted that characterised every inhibitor with regard to its capacity and effectiveness in inhibiting fibril formation: • IC50: inhibitor concentration (μM) at which the aggregation was half that in the absence of inhibitor; • Ψ: initial slope of curve v0 versus [I], which reflected the sensitivity of the aggregation process to the inhibitor.

Compound	RA (%): % reduction of the rate of aggregation at high inhibitor concentration	pIC50	Ψ: initial slope of curve v0 versus [I]
NC(=O)c1cc(-c2ccc(F)cc2F)ccc1O [Diflunisal amide]	10%	< 4.00	0.009 UA · hr^−1 · μM^−1
O=C(O)CNC(=O)c1cc(-c2ccc(F)cc2F)ccc1O [Diflunisal glycine]	28%	< 4.00	0.011 UA · hr^−1 · μM^−1
COC(=O)c1cc(-c2ccc(F)cc2F)ccc1O [Diflunisal methylester]	24%	< 4.00	0.011 UA · hr^−1 · μM^−1
O=C(O)c1cc(-c2ccc(F)cc2F)ccc1O [Diflunisal, 5-(2,4-difluorophenyl)salicylic acid]	84%		0.036 UA · hr^−1 · μM^−1
NC(=O)c1cc(-c2ccc(F)cc2F)cc(I)c1O [Iododiflunisalamide, 5-(2,4-difluorophenyl)-3-iodo-salicylamide]	84%	4.93	0.041 UA · hr^−1 · μM^−1
COC(=O)c1cc(-c2ccc(F)cc2F)cc(I)c1O [Iododiflunisalmethyl ester, methyl 5-(2,4-difluorophenyl)-3-iodo-salicylate]	98%	4.78	0.027 UA · hr^−1 · μM^−1
N-[5-(2,4-difluorophenyl)-3-iodo-salicyloyl]glycine [Iododiflunisalglycine]	100%	4.95	0.040 UA · hr^−1 · μM^−1

From patent US7265245B2, “Compounds useful for the treatment of diseases associated with the formation of amyloid fibrils” (Innovaprotean, S.L, priority 2003, dated 2007)
